Assay results published in US10350202B2, “Composition and method for treating skin conditions” (442 Ventures, LLC, priority 2010, dated 2019).

Test system: warts
Experiment: In vivo treatment of warts
Design: species or system human
Conditions: topical application to warts
Protocol: A composition including an imidazoquinoline compound; and a retinoid agent was tested in vivo. Imiquimod (5% (wt/wt)) and tazarotene (0.1% (wt/wt) were combined in a 1:1 ratio. The resulting composition was topically applied to individual warts in approximately 30 patients. The patients had various types of warts (thick and thin) in varying locations including palms, soles, hands, legs, feet, trunk, and extremities (including periungual). The composition could be used occluded or non-occluded, at the patient's option.

| Structure (SMILES) | treatment result on warts (in words) |
| --- | --- |
| CC(C)Cn1cnc2c(N)nc3ccccc3c21 [imiquimod, 1-(2-methylpropyl)-1H-imidpzo[4,5-c]quinolin-4-amine] | not as efficacious |
| CCOC(=O)c1ccc(C#Cc2ccc3c(c2)C(C)(C)CCS3)nc1 [tazarotene] | not as efficacious |
